{"source": "ChEMBL document CHEMBL1201862", "about": "“PubChem BioAssay data set” (2004)", "key": {"[1]": {"target": "T1, Trace amine-associated receptor 1 (Homo sapiens, UniProt Q96RJ0)", "T1 sequence (Q96RJ0 whole entry)": "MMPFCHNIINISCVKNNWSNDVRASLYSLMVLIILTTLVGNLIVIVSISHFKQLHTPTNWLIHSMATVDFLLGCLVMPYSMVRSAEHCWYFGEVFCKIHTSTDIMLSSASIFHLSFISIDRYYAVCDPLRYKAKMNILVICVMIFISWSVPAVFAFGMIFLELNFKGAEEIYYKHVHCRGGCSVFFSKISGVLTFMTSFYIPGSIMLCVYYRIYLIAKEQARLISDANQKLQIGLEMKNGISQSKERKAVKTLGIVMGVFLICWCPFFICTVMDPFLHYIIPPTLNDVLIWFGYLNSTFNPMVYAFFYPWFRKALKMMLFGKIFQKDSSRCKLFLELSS", "experiment": "Fluorescence-based cell-based high throughput dose response assay to identify agonists of the human trace amine associated receptor 1 (TAAR1).", "format": "functional"}, "[2]": {"target": "T1, Trace amine-associated receptor 1", "experiment": "Counterscreen for agonists of the human trace amine associated receptor 1 (hTAAR1): Fluorescence-based cell-based high throughput dose response assay to identify hTAAR1 agonist that also desensitize TAAR1 receptor response.", "format": "functional"}, "cells [3]": {"experiment": "cells", "format": "functional, cell-based"}, "cells [4]": {"experiment": "cells", "format": "functional, cell-based", "remark": "listed apart in the source"}, "[5]": {"experiment": "reduced cellular PGC1a acetyl-lysine signal – cell-based, cherry-picked samples, dose response (AID 720514);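 further: potency may reflect raised or lowered acetylation signal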", "format": "functional"}, "cells [6]": {"experiment": "cells", "format": "functional, cell-based", "conditions": "HEK-CNG"}, "Galanin receptor type 3": {"target": "Galanin receptor type 3 (Homo sapiens, UniProt O60755)", "sequence (O60755 whole entry)": "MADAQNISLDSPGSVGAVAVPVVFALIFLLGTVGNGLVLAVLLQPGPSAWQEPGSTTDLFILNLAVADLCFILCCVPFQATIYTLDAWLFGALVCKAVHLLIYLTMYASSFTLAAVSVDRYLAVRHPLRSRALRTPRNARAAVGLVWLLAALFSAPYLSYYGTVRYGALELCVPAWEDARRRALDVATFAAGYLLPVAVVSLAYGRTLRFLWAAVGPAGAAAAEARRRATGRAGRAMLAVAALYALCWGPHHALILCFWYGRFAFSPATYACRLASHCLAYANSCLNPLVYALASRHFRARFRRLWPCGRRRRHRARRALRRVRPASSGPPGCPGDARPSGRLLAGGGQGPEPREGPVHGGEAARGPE", "experiment": "Fluorescence-based cell-based primary high throughput dose response assay to identify antagonists of the Galanin Receptor 3 (GalR3).", "format": "functional"}, "[7]": {"experiment": "potency of ADAM10 substrate cleavage blockers – biochemical, QFRET, dose response (AID 743254);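 further: ADAM10 enzyme with the DM2 quenched FRET peptide as substrate; EDANS fluorescence gain as the protease cuts the substrate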"}, "[8]": {"target": "Disintegrin and metalloproteinase domain-containing protein 17 (Homo sapiens, UniProt P78536)", "sequence (P78536 whole entry, the tested form may be a part)": "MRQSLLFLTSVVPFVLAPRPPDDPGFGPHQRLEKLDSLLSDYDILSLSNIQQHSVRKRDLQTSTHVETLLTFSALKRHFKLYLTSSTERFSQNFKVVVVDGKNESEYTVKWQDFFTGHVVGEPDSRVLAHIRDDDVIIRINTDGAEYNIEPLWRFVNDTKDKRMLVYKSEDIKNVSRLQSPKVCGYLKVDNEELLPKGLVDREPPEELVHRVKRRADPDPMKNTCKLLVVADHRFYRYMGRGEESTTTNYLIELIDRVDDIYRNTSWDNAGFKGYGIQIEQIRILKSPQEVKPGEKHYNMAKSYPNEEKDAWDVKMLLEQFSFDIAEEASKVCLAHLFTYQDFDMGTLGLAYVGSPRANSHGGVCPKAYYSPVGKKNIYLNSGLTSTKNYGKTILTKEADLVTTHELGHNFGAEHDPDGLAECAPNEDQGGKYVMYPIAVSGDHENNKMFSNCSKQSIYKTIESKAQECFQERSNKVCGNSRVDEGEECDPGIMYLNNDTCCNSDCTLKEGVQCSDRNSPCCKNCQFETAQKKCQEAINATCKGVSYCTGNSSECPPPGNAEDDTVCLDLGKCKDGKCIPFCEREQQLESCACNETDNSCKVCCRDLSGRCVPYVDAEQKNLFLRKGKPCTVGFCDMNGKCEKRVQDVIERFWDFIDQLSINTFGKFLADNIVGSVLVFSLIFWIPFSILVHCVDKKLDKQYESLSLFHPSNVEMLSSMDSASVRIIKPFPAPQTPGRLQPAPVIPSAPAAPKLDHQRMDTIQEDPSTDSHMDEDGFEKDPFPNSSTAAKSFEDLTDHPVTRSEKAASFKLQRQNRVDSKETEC", "experiment": "inhibition of ADAM17 substrate cleavage – biochemical, quenched FRET substrate, counter-screen for ADAM10 exosite inhibitor project, dose response (AID 743253)"}, "[9]": {"experiment": "HPDE-C7 pancreatic duct cell viability loss – fluorescence, HTS (AID 430)", "format": "functional, cell-based", "conditions": "Homo sapiens"}, "[10]": {"experiment": "viability loss of HPDE-C7K cells – cell-based, fluorescence, HTS, primary screen (AID 431)", "format": "functional", "conditions": "Homo sapiens"}, "HEK293 [11]": {"system": "HEK293", "experiment": "cells", "format": "functional, cell-based", "conditions": "Homo sapiens"}, "[12]": {"experiment": "non-specific 3'UTR reporter inhibition in Clone20-Shn3RL – cell-based, Renilla luciferase, cherry-picked, counter-screen for Shn3 inhibitor project, dose response (AID 624133)", "format": "functional"}, "HEK293 [13]": {"system": "HEK293", "experiment": "cells", "format": "functional, cell-based", "conditions": "Homo sapiens", "remark": "listed apart in the source"}, "[14]": {"experiment": "reduction of Shn3 3'UTR-driven luciferase in osteoblasts – cell-based, Clone20 osteoblasts, firefly luciferase, cherry-picked, dose response (AID 624132)", "format": "functional"}, "HEK293 [15]": {"system": "HEK293", "experiment": "NOD2 signaling inhibitors in MDP-stimulated cells, cell-based, uHTS, luminescence (AID 2001)", "format": "functional", "conditions": "Homo sapiens"}, "[16]": {"experiment": "loss of viability in HepG2 cells – cell-based, CellTiter-Glo, cherry-picked, cytotoxicity control for Shn3 inhibitor project, dose response (AID 624134)", "format": "functional"}, "INS1": {"system": "INS1", "experiment": "INS-1E survival protection against cytokine death – cell-based, luminescence, retest, dose response (AID 449756);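 further: cell death triggered by IL-1 beta plus TNF-alpha plus IFN-gamma mixture; protective hits raise ATP signal compared with cytokine alone wells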", "format": "functional", "conditions": "Rattus norvegicus"}, "HEK293 [17]": {"system": "HEK293", "experiment": "inhibition of NOD1-driven NF-kB reporter – cell-based, luminescence, uHTS, primary screen (AID 1578)", "format": "functional", "conditions": "Homo sapiens"}, "[18]": {"target": "COUP transcription factor 2 (Homo sapiens, UniProt P24468)", "sequence (P24468 whole entry)": "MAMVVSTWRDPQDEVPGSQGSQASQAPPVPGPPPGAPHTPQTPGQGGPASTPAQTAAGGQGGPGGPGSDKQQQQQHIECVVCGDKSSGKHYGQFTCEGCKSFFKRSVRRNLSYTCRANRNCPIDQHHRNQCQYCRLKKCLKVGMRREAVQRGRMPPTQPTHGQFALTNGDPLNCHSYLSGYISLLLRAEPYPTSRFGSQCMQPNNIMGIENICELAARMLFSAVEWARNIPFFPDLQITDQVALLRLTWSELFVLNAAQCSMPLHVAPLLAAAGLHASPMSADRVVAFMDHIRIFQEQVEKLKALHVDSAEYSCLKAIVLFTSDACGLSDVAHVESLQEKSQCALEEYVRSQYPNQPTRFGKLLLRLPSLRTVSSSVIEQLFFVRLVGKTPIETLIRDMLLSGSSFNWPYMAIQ", "experiment": "Luminescence-based cell-based high throughput dose response assay to identify inhibitors of COUP-TFII (NR2F2).", "format": "functional"}, "Caspase-6": {"target": "Caspase-6 (Homo sapiens, UniProt P55212)", "sequence (P55212 24-179 limits assumed)": "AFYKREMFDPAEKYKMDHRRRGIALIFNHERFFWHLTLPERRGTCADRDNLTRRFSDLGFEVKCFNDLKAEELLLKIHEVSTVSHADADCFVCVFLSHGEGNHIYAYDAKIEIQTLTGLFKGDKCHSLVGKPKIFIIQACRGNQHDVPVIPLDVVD", "sequence (P55212 194-293 limits assumed)": "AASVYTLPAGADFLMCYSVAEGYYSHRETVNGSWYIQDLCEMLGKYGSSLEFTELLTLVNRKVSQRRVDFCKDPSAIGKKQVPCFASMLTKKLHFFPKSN", "experiment": "inhibition of CASP6 peptide cleavage – biochemical, VEID-R110 fluorescence, cherry-pick, dose response (AID 720632)"}, "Paired box protein Pax-8": {"target": "Paired box protein Pax-8 (Homo sapiens, UniProt Q06710)", "sequence (Q06710 whole entry)": "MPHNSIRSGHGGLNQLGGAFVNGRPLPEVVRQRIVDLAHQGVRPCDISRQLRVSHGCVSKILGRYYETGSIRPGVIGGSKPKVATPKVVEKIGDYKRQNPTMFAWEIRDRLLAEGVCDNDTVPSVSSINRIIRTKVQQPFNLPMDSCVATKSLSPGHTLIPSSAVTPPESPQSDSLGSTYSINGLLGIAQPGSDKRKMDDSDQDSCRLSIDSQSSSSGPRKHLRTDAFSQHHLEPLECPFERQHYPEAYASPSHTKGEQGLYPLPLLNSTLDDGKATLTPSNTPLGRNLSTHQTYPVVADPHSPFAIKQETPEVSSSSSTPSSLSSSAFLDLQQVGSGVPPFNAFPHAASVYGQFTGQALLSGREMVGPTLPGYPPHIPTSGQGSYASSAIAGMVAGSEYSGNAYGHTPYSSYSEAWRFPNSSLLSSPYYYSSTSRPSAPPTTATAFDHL", "experiment": "PAX8 transcriptional activity inhibition in RMG-I – RMG-I cells, luciferase, cherry-pick, dose response (AID 687027);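 further: luciferase reporter driven by Pax8 target thyroperoxidase promoter measured by SteadyGlo luminescence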", "format": "functional, cell-based"}, "[19]": {"target": "Hepatocyte nuclear factor 4-alpha (Homo sapiens, UniProt P41235)", "sequence (P41235 whole entry)": "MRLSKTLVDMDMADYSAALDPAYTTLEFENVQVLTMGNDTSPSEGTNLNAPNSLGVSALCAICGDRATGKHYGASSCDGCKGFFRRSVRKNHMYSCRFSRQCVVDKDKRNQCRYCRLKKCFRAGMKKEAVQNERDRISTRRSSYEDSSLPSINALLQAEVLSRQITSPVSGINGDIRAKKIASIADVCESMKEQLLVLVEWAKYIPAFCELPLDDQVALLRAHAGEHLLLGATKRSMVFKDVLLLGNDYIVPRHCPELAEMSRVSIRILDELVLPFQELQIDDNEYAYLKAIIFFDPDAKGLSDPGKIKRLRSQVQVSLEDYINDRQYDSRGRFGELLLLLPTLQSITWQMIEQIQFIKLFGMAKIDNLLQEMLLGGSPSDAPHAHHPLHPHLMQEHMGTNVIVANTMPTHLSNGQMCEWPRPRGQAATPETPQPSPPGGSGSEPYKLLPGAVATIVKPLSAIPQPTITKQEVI", "format": "functional, cell-based"}}, "note": "The source made the active and inactive calls."}
{"smiles": "Cn1cccc1CNCCc1ccc(F)cc1", "values": [{"measurement": "EC50", "setting": "[1]", "result": "6.31 µM (active)"}, {"measurement": "IC50", "setting": "[2]", "result": "20 µM (inactive)"}, {"measurement": "EC50", "setting": "cells [3]", "result": "> 29.9 µM (inactive)"}, {"measurement": "IC50", "setting": "cells [4]", "result": "> 29.9 µM (inactive)"}]}
{"smiles": "CCN1C(C#N)=C(C#N)N=C(C)CC1(C)C", "values": [{"measurement": "AC50", "setting": "[5]", "result": "30.5 µM (active)"}]}
{"smiles": "CCOc1nc(C#N)nc(N2CCCCC2)n1", "values": [{"measurement": "EC50", "setting": "cells [6]", "result": "> 29.9 µM (inactive)"}, {"measurement": "IC50", "setting": "Galanin receptor type 3", "result": "1.09 µM (active)"}]}
{"smiles": "C=C(C)COc1ccc(-c2n[nH]cc2-c2ccccc2OC)c(O)c1", "values": [{"measurement": "IC50", "setting": "[7]", "result": "10.6 µM (inactive)"}, {"measurement": "IC50", "setting": "[8]", "result": "> 69.5 µM (inactive)"}, {"measurement": "EC50", "setting": "[9]", "result": "13.7 µM (active)"}, {"measurement": "EC50", "setting": "[10]", "result": "11.3 µM (active)"}]}
{"smiles": "Cc1nn(CC(=O)N/N=C/c2cccs2)c(C)c1[N+](=O)[O-]", "values": [{"measurement": "EC50", "setting": "[1]", "result": "2.82 µM (active)"}, {"measurement": "IC50", "setting": "[2]", "result": "> 29.9 µM (inactive)"}, {"measurement": "EC50", "setting": "cells [3]", "result": "> 29.9 µM (inactive)"}, {"measurement": "IC50", "setting": "cells [4]", "result": "> 29.9 µM (inactive)"}]}
{"smiles": "CCN(CC)S(=O)(=O)c1cccc(NC(=O)CNc2cccc(S(=O)(=O)N3CCCC3)c2)c1", "values": [{"measurement": "IC50", "setting": "HEK293 [11]", "result": "2.55 µM (active)"}, {"measurement": "AC50", "setting": "[12]", "result": "33.8 µM (active)"}, {"measurement": "IC50", "setting": "HEK293 [13]", "result": "14.6 µM (active)"}, {"measurement": "AC50", "setting": "[14]", "result": "0.317 µM (active)"}, {"measurement": "IC50", "setting": "HEK293 [15]", "result": "3.47 µM (active)"}, {"measurement": "AC50", "setting": "[16]", "result": "1.11 µM (active)"}, {"measurement": "AC50", "setting": "INS1", "result": "3.73 µM (active)"}, {"measurement": "EC50", "setting": "HEK293 [17]", "result": "0.56 µM (active)"}, {"measurement": "IC50", "setting": "[18]", "result": "3.33 µM (active)"}]}
{"smiles": "Cc1cccc(NC2=C(NCCO)C(=O)c3ccccc3C2=O)c1", "values": [{"measurement": "AC50", "setting": "Caspase-6", "result": "9.36 µM (active)"}]}
{"smiles": "Cc1ccc(C(=O)NC2CCCc3c2cnn3-c2ccc(F)cc2F)cn1", "note": "(configuration not stated)", "values": [{"measurement": "AC50", "setting": "[12]", "result": "6.81 µM (active)"}, {"measurement": "AC50", "setting": "[14]", "result": "0.921 µM (active)"}, {"measurement": "AC50", "setting": "[16]", "result": "2.34 µM (active)"}, {"measurement": "AC50", "setting": "INS1", "result": "4.93 µM (active)"}, {"measurement": "IC50", "setting": "[18]", "result": "3.66 µM (active)"}]}
{"smiles": "Fc1ccc(N=C(S)NNc2ncc(C(F)(F)F)cc2Cl)c(F)c1", "values": [{"measurement": "EC50", "setting": "cells [6]", "result": "> 29.9 µM (inactive)"}]}
{"smiles": "C#CCN(C[C@@H]1[C@@H](OC(=O)NCC2CCCCC2)[C@@H](OC(=O)NCC2CCCCC2)Cn2c(=O)ccc(=O)n21)S(=O)(=O)c1ccc(C)cc1", "values": [{"measurement": "AC50", "setting": "[12]", "result": "3.96 µM (active)"}, {"measurement": "AC50", "setting": "Paired box protein Pax-8", "result": "3.03 µM (active)"}, {"measurement": "AC50", "setting": "[14]", "result": "2.49 µM (active)"}, {"measurement": "IC50", "setting": "[19]", "result": "29.3 µM (inactive)"}, {"measurement": "AC50", "setting": "[16]", "result": "6.53 µM (active)"}, {"measurement": "AC50", "setting": "[5]", "result": "1.65 µM (active)"}]}
